Test results as given in patent US20260022142A1, “MACROCYCLIC IMMUNOMODULATORS” (Bristol-Myers Squibb Company, priority 2022, published 2026).
Bridge positions count the residues as written; N and C are the ends. Square brackets hold non-standard residues; d marks the D form. Peptide text beside a SMILES is read from it. * marks the point of attachment. ξ: configuration not given here. Phe(4-COOH) = N[C@@H](Cc1ccc(C(=O)O)cc1)C(=O)O; Bip = N[C@@H](Cc1ccc(-c2ccccc2)cc1)C(=O)O; Phe(3-Me) = Cc1cccc(C[C@H](N)C(=O)O)c1; hArg = N=C(N)NCCCC[C@H](N)C(=O)O; Cha = N[C@@H](CC1CCCCC1)C(=O)O; Cit = NC(=O)NCCC[C@H](N)C(=O)O; Thr(3ξ) = CC(O)[C@H](N)C(=O)O; 12Ado = NCCCCCCCCCCCC(=O)O; Carboxymethyl = O=C(O)C*; Orn = NCCC[C@H](N)C(=O)O; Aun = NCCCCCCCCCCC(=O)O; Dab = NCC[C@H](N)C(=O)O; Dap = NC[C@H](N)C(=O)O; AEEA = NCCOCCOCC(=O)O

Molecular target: T1, PD-1/PD-L1 interaction (PE-labeled human PD-L1-Ig binding to Jurkat cell line over-expressing human PD-1) (Homo sapiens, UniProt Q15116)
T1 construct: expressed in transfected cells; host or cells: Jurkat
Assay: Jurkat-PD-1 Cell Binding High-Content Screening Assay (CBA)
Type: cell-based
Conditions: Jurkat cell line over-expressing human PD-1; PE-labeled PD-L1-Ig 20 nM final; read-out: Jurkat hPD1-PDL1 IC50
In short: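 First, compound is added to PD-1-expressing Jurkat cells in serum-containing DMEM and left 2 h at 37° C. Next, PE-conjugated PD-L1-Ig is introduced at 20 nM final concentration for 1 hour. Finally, cells are fixed in 4% paraformaldehyde with Hoechst 33342, washed and imaged.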

T1 sequence (Q15116 25-288): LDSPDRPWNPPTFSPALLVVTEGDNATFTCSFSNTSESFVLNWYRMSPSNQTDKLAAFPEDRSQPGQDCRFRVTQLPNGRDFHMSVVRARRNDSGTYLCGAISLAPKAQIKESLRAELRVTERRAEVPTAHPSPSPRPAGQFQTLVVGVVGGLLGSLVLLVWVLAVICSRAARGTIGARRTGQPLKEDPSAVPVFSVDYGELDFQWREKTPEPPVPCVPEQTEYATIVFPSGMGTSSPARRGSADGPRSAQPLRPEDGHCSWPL

CC(C)C[C@H]1NC(=O)[C@H](CCCN)NC(=O)[C@H](C(C)C)NC(=O)[C@H](Cc2ccc(-c3ccccc3)cc2)NC(=O)[C@H](C(C)C)NC(=O)[C@H](Cc2c[nH]c3ccccc23)NC(=O)[C@H](CC(=O)O)NC(=O)[C@H](Cc2ccc(OCC(=O)O)cc2)NC(=O)[C@H](CCCNC(=N)N)NC(=O)CSC[C@@H](C(=O)NCC(=O)NCCOCCOCC(=O)N[C@@H](CCCN)C(=O)NCCCCCCCCCCCC(=O)O)NC(=O)[C@H](CN)NC(=O)[C@H](C(C)C)NC(=O)[C@H](CC2CCCCC2)NC(=O)[C@H](CCN)NC1=O [Compound 3172] ({CH2CO}-RY(Carboxymethyl)DWV[Bip]V[Orn][dL][Dab][Cha]V[Dap]CG[AEEA][Orn][12Ado]-OH; thioether N-14)
IC50: 10.7 nM

CC(C)C[C@H]1NC(=O)[C@H](CCCN)NC(=O)[C@H](C(C)C)NC(=O)[C@H](Cc2ccc(-c3ccccc3)cc2)NC(=O)[C@H](C(C)C)NC(=O)[C@H](Cc2c[nH]c3ccccc23)NC(=O)[C@H](CC(=O)O)NC(=O)[C@H](Cc2ccc(OCC(=O)O)cc2)NC(=O)[C@H](CCCCNC(=N)N)NC(=O)CSC[C@@H](C(=O)NCC(=O)NCCOCCOCC(=O)N[C@@H](CCCN)C(=O)NCCCCCCCCCCCC(=O)O)NC(=O)[C@H](CN)NC(=O)[C@H](C(C)C)NC(=O)[C@H](CC2CCCCC2)NC(=O)[C@H](CCN)NC1=O [Compound 3173] ({CH2CO}-[hArg]Y(Carboxymethyl)DWV[Bip]V[Orn][dL][Dab][Cha]V[Dap]CG[AEEA][Orn][12Ado]-OH; thioether N-14)
IC50: 21.2 nM

CC(C)C[C@H]1NC(=O)[C@H](CCCN)NC(=O)[C@H](C(C)C)NC(=O)[C@H](Cc2ccc(-c3ccccc3)cc2)NC(=O)[C@H](C(C)C)NC(=O)[C@H](Cc2c[nH]c3ccccc23)NC(=O)[C@H](CC(=O)O)NC(=O)[C@H](Cc2ccc(OCC(=O)O)cc2)NC(=O)[C@H](CCCCNC(=N)N)NC(=O)CSC[C@@H](C(=O)NCC(=O)N[C@@H](CCCN)C(=O)NCCCCCCCCCCCC(=O)O)NC(=O)[C@H](CN)NC(=O)[C@H](C(C)C)NC(=O)[C@H](CC2CCCCC2)NC(=O)[C@H](CCN)NC1=O [Compound 3175] ({CH2CO}-[hArg]Y(Carboxymethyl)DWV[Bip]V[Orn][dL][Dab][Cha]V[Dap]CG[Orn][12Ado]-OH; thioether N-14)
IC50: 17.7 nM

CC(C)C[C@H]1NC(=O)[C@H](CCCN)NC(=O)[C@H](C(C)C)NC(=O)[C@H](Cc2ccc(-c3ccccc3)cc2)NC(=O)[C@H](C(C)C)NC(=O)[C@H](Cc2c[nH]c3ccccc23)NC(=O)[C@H](CC(=O)O)NC(=O)[C@H](Cc2ccc(OCC(=O)O)cc2)NC(=O)[C@H](CCCCNC(=N)N)NC(=O)CSC[C@@H](C(=O)NCC(=O)N[C@@H](CCCN)C(=O)NCCCCCCCCCCCC(=O)O)NC(=O)[C@H](CN)NC(=O)[C@H](C(C)C)NC(=O)[C@H](CC2CCCCC2)NC(=O)[C@H](CC(N)=O)NC1=O [Compound 3176] ({CH2CO}-[hArg]Y(Carboxymethyl)DWV[Bip]V[Orn][dL]N[Cha]V[Dap]CG[Orn][12Ado]-OH; thioether N-14)
IC50: 33.4 nM

CC(C)C[C@H]1NC(=O)[C@H](CCCN)NC(=O)[C@H](C(C)C)NC(=O)[C@H](Cc2ccc(-c3ccccc3)cc2)NC(=O)[C@H](C(C)C)NC(=O)[C@H](Cc2c[nH]c3ccccc23)NC(=O)[C@H](CC(=O)O)NC(=O)[C@H](Cc2ccc(OCC(=O)O)cc2)NC(=O)[C@H](CCCCNC(=N)N)NC(=O)CSC[C@@H](C(=O)N[C@@H](CCN)C(=O)NCCOCCOCC(=O)N[C@@H](CCCN)C(=O)NCCCCCCCCCCCC(=O)O)NC(=O)[C@H](CO)NC(=O)[C@H](C(C)C)NC(=O)[C@H](CC2CCCCC2)NC(=O)[C@H](CC(N)=O)NC1=O [Compound 3177] ({CH2CO}-[hArg]Y(Carboxymethyl)DWV[Bip]V[Orn][dL]N[Cha]VSC[Dab][AEEA][Orn][12Ado]-OH; thioether N-14)
IC50: 27.3 nM

CC(C)C[C@H]1NC(=O)[C@H](CCCN)NC(=O)[C@H](C(C)C)NC(=O)[C@H](Cc2ccc(-c3ccccc3)cc2)NC(=O)[C@H](C(C)C)NC(=O)[C@H](Cc2c[nH]c3ccccc23)NC(=O)[C@H](CC(=O)O)NC(=O)[C@H](Cc2ccc(OCC(=O)O)cc2)NC(=O)[C@H](CCCCNC(=N)N)NC(=O)CSC[C@@H](C(=O)N[C@@H](CCCN)C(=O)NCCOCCOCC(=O)N[C@@H](CCCN)C(=O)NCCCCCCCCCCC(=O)O)NC(=O)[C@H](CO)NC(=O)[C@H](C(C)C)NC(=O)[C@H](CC2CCCCC2)NC(=O)[C@H](CC(N)=O)NC1=O [Compound 3178] ({CH2CO}-[hArg]Y(Carboxymethyl)DWV[Bip]V[Orn][dL]N[Cha]VSC[Orn][AEEA][Orn][Aun]-OH; thioether N-14)
IC50: 14.8 nM

CC(C)C[C@H]1NC(=O)[C@H](CCCN)NC(=O)[C@H](C(C)C)NC(=O)[C@H](Cc2ccc(-c3ccccc3)cc2)NC(=O)[C@H](C(C)C)NC(=O)[C@H](Cc2c[nH]c3ccccc23)NC(=O)[C@H](CC(=O)O)NC(=O)[C@H](Cc2ccc(OCC(=O)O)cc2)NC(=O)[C@H](Cc2ccc(OCC(=O)O)cc2)NC(=O)CSC[C@@H](C(=O)NCC(=O)NCCOCCOCC(=O)N[C@@H](CCCN)C(=O)NCCCCCCCCCCCC(=O)O)NC(=O)[C@H](CO)NC(=O)[C@H](C(C)C)NC(=O)[C@H](CC2CCCCC2)NC(=O)[C@H](CCN)NC1=O [Compound 3179] ({CH2CO}-Y(Carboxymethyl)Y(Carboxymethyl)DWV[Bip]V[Orn][dL][Dab][Cha]VSCG[AEEA][Orn][12Ado]-OH; thioether N-14)
IC50: 16.1 nM

CC(C)C[C@H]1NC(=O)[C@H](CCCN)NC(=O)[C@H](C(C)C)NC(=O)[C@H](Cc2ccc(-c3ccccc3)cc2)NC(=O)[C@H](C(C)C)NC(=O)[C@H](Cc2c[nH]c3ccccc23)NC(=O)[C@H](CC(=O)O)NC(=O)[C@H](Cc2ccc(C(=O)O)cc2)NC(=O)[C@H](Cc2ccc(OCC(=O)O)cc2)NC(=O)CSC[C@@H](C(=O)NCC(=O)NCCOCCOCC(=O)N[C@@H](CCCN)C(=O)NCCCCCCCCCCCC(=O)O)NC(=O)[C@H](CO)NC(=O)[C@H](C(C)C)NC(=O)[C@H](CC2CCCCC2)NC(=O)[C@H](CCN)NC1=O [Compound 3180] ({CH2CO}-Y(Carboxymethyl)[Phe(4-COOH)]DWV[Bip]V[Orn][dL][Dab][Cha]VSCG[AEEA][Orn][12Ado]-OH; thioether N-14)
IC50: 16.8 nM

CC(C)C[C@H]1NC(=O)[C@H](CCCN)NC(=O)[C@H](C(C)C)NC(=O)[C@H](Cc2ccc(-c3ccccc3)cc2)NC(=O)[C@H](C(C)C)NC(=O)[C@H](Cc2c[nH]c3ccccc23)NC(=O)[C@H](CC(=O)O)NC(=O)[C@H](Cc2ccc(OCC(=O)O)cc2)NC(=O)[C@H](CCCNC(=N)N)NC(=O)CSC[C@@H](C(=O)NCC(=O)NCCOCCOCC(=O)N[C@@H](CCCN)C(=O)NCCCCCCCCCCCC(=O)O)NC(=O)[C@H](CO)NC(=O)[C@H](C(C)C)NC(=O)[C@H](CC2CCCCC2)NC(=O)[C@H](CCN)NC1=O [Compound 3181] ({CH2CO}-RY(Carboxymethyl)DWV[Bip]V[Orn][dL][Dab][Cha]VSCG[AEEA][Orn][12Ado]-OH; thioether N-14)
IC50: 7.6 nM

Cc1cccc(C[C@@H]2NC(=O)[C@H](CC(=O)O)NC(=O)[C@H](Cc3ccc(OCC(=O)O)cc3)NC(=O)[C@H](CCCCNC(=N)N)NC(=O)CSC[C@@H](C(=O)NCC(=O)N[C@@H](CCC(=O)O)C(=O)NCCCCCCCCCCCC(=O)O)NC(=O)[C@H](CO)NC(=O)[C@H](C(C)C)NC(=O)[C@H](CC3CCCCC3)NC(=O)[C@H](C(C)O)NC(=O)[C@@H](CC(C)C)NC(=O)[C@H](CCCN)NC(=O)[C@H](CCCNC(N)=O)NC(=O)[C@H](Cc3ccc(-c4ccccc4)cc3)NC(=O)[C@H](C(C)C)NC2=O)c1 (stereo partly drawn) [Compound 3182] ({CH2CO}-[hArg]Y(Carboxymethyl)D[Phe(3-Me)]V[Bip][Cit][Orn][dL][Thr(3ξ)][Cha]VSCGE[12Ado]-OH; thioether N-14)
IC50: 45.9 nM

Cc1cccc(C[C@@H]2NC(=O)[C@H](CC(=O)O)NC(=O)[C@H](Cc3ccc(OCC(=O)O)cc3)NC(=O)[C@H](CCCCNC(=N)N)NC(=O)CSC[C@@H](C(=O)NCC(=O)N[C@@H](CCC(=O)O)C(=O)NCCCCCCCCCCCC(=O)O)NC(=O)[C@H](CO)NC(=O)[C@H](C(C)C)NC(=O)[C@H](CC3CCCCC3)NC(=O)[C@H](CCN)NC(=O)[C@@H](CC(C)C)NC(=O)[C@H](CCCN)NC(=O)[C@H](CCCNC(N)=O)NC(=O)[C@H](Cc3ccc(-c4ccccc4)cc3)NC(=O)[C@H](C(C)C)NC2=O)c1 [Compound 3183] ({CH2CO}-[hArg]Y(Carboxymethyl)D[Phe(3-Me)]V[Bip][Cit][Orn][dL][Dab][Cha]VSCGE[12Ado]-OH; thioether N-14)
IC50: 821 nM

Cc1cccc(C[C@@H]2NC(=O)[C@H](CC(=O)O)NC(=O)[C@H](Cc3ccc(OCC(=O)O)cc3)NC(=O)[C@H](CCCCNC(=N)N)NC(=O)CSC[C@@H](C(=O)NCC(=O)NCCOCCOCC(=O)N[C@@H](CCC(=O)O)C(=O)NCCCCCCCCCCCC(=O)O)NC(=O)[C@H](CO)NC(=O)[C@H](C(C)C)NC(=O)[C@H](CC3CCCCC3)NC(=O)[C@H](CCN)NC(=O)[C@@H](CC(C)C)NC(=O)[C@H](CCCN)NC(=O)[C@H](C(C)C)NC(=O)[C@H](Cc3ccc(-c4ccccc4)cc3)NC(=O)[C@H](C(C)C)NC2=O)c1 [Compound 3184] ({CH2CO}-[hArg]Y(Carboxymethyl)D[Phe(3-Me)]V[Bip]V[Orn][dL][Dab][Cha]VSCG[AEEA]E[12Ado]-OH; thioether N-14)
IC50: 10.1 nM

Cc1cccc(C[C@@H]2NC(=O)[C@H](CC(=O)O)NC(=O)[C@H](Cc3ccc(OCC(=O)O)cc3)NC(=O)[C@H](CCCCNC(=N)N)NC(=O)CSC[C@@H](C(=O)NCC(=O)NCCOCCOCC(=O)N[C@@H](CCC(=O)O)C(=O)NCCCCCCCCCCCC(=O)O)NC(=O)[C@H](CO)NC(=O)[C@H](C(C)C)NC(=O)[C@H](CC3CCCCC3)NC(=O)[C@H](CCN)NC(=O)[C@@H](CC(C)C)NC(=O)[C@H](CCCN)NC(=O)[C@H](CCCNC(N)=O)NC(=O)[C@H](Cc3ccc(-c4ccccc4)cc3)NC(=O)[C@H](C(C)C)NC2=O)c1 [Compound 3185] ({CH2CO}-[hArg]Y(Carboxymethyl)D[Phe(3-Me)]V[Bip][Cit][Orn][dL][Dab][Cha]VSCG[AEEA]E[12Ado]-OH; thioether N-14)
IC50: 17.6 nM
